According to US6355799B1, “Substituted benzene compounds, process for their preparation, and herbicidal and defoliant compositions containing them” (ISK Americas Incorporated, priority 1997, dated 2002):

Tests used:
Assay type in all cases: in vivo
[1] = system: sicklepod (Cassia obtusifolia, CASOB); test: Pre-emerge test, greenhouse herbicide activity screening; details: pre-emerge, 14 days after application, rating scale 0-100
Outline: (§1)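 Compounds in acetone were track-sprayed at 15–1000 g ai/ha: pre-emergence onto soil sown the previous day, then top-watered to incorporate and later bottom-watered; post-emergence onto 2–3 leaf plants with 0.25% v/v surfactant, bottom-watered only. Ratings on a 0–100 phytotoxicity scale were taken at day 14.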

[2] = system: barnyardgrass (Echinochloa crus-galli, ECHCG); test: as above; details: pre-emerge, 14 days after application, rating scale 0-100
Outline: as §1

[3] = system: large crabgrass (Digitaria sanguinalis, DIGSA); test: as above; details: pre-emerge, 14 days after application, rating scale 0-100
Outline: as §1

[4] = system: cocklebur (Xanthium strumarium, XANST); test: as above; details: 14 days after application, rating scale 0-100
[5] = system: lambsquarters (Chenopodium album, CHEAL); test: as above; details: pre-emerge, 14 days after application, rating scale 0-100
Outline: as §1

[6] = system: johnsongrass (Sorghum halepense, SORHA); test: as above; details: pre-emerge, 14 days after application, rating scale 0-100
Outline: as §1

[7] = system: velvetleaf (Abutilon theophrasti, ABUTH); test: as above; details: pre-emerge, 14 days after application, rating scale 0-100
Outline: as §1

[8] = system: ivyleaf morningglory (Ipomoea hederacea, IPOHE); test: as above; details: pre-emerge, 14 days after application, rating scale 0-100
Outline: as §1

[9] = system: green foxtail (Setaria viridis, SETVI); test: as above; details: pre-emerge, 14 days after application, rating scale 0-100
Outline: as §1

[10] = system: redroot pigweed (Amaranthus retroflexus, AMARE); test: as above; details: pre-emerge, 14 days after application, rating scale 0-100
Outline: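 Plants grown in 10 cm pots of sandy loam mix received acetone-dissolved compounds through a moving flat-fan nozzle. Doses ranged from 15 to 1000 g ai/ha. Pre-emerge pots were seeded one day earlier, post-emerge pots 8–21 days earlier. Fourteen days on, each pot was graded 0–100 for damage.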

[11] = system: upland rice (Oryza sp., var. Tebonnet, RICE); test: Pre-emerge test, crop safety; details: pre-emerge, 14 days after application, rating scale 0-100
Outline: (§2)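 Fourteen days after spraying, crop and weed injury was graded visually from 0, no effect, to 100, every plant dead. Test substances were dissolved in acetone and applied at 15–1000 g ai/ha with a flat-fan nozzle. Application was either pre-emergence, one day after sowing, or post-emergence at the 2–3 leaf stage.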

[12] = system: field corn (Zea mays L., var. Dekalb 535, CORN); test: Pre-emerge test, crop safety; details: pre-emerge, 14 days after application, rating scale 0-100
Outline: as §2

## O=c1cc(C(F)(F)F)[nH]c(=O)n1-c1c(Cl)cc(C(F)(F)F)cc1Cl [compound 2, reference compound]
[1]; 3.9 g ai/ha
  phytotoxicity rating CASOB: 0
[1]; 7.8 g ai/ha
  phytotoxicity rating CASOB: 0
[1]; 15.6 g ai/ha
  phytotoxicity rating CASOB: 0
[1]; 31.3 g ai/ha
  phytotoxicity rating CASOB: 0
[1]; 62.5 g ai/ha
  phytotoxicity rating CASOB: 0
[1]; 125 g ai/ha
  phytotoxicity rating CASOB: 30
[1]; 250 g ai/ha
  phytotoxicity rating CASOB: 50
[2]; 3.9 g ai/ha
  phytotoxicity rating ECHCG: 0
[2]; 7.8 g ai/ha
  phytotoxicity rating ECHCG: 0
[2]; 15.6 g ai/ha
  phytotoxicity rating ECHCG: 0
[2]; 31.3 g ai/ha
  phytotoxicity rating ECHCG: 0
[2]; 62.5 g ai/ha
  phytotoxicity rating ECHCG: 0
[2]; 125 g ai/ha
  phytotoxicity rating ECHCG: 0
[2]; 250 g ai/ha
  phytotoxicity rating ECHCG: 0
[3]; 3.9 g ai/ha
  phytotoxicity rating DIGSA: 0
[3]; 7.8 g ai/ha
  phytotoxicity rating DIGSA: 0
[3]; 15.6 g ai/ha
  phytotoxicity rating DIGSA: 0
[3]; 31.3 g ai/ha
  phytotoxicity rating DIGSA: 0
[3]; 62.5 g ai/ha
  phytotoxicity rating DIGSA: 0
[3]; 125 g ai/ha
  phytotoxicity rating DIGSA: 0
[3]; 250 g ai/ha
  phytotoxicity rating DIGSA: 0
[4]; 3.9 g ai/ha
  phytotoxicity rating XANST: 0
[4]; 7.8 g ai/ha
  phytotoxicity rating XANST: 0
[4]; 15.6 g ai/ha
  phytotoxicity rating XANST: 0
[4]; 31.3 g ai/ha
  phytotoxicity rating XANST: 0
[4]; 62.5 g ai/ha
  phytotoxicity rating XANST: 0
[4]; 125 g ai/ha
  phytotoxicity rating XANST: 0
[4]; 250 g ai/ha
  phytotoxicity rating XANST: 60
[5]; 3.9 g ai/ha
  phytotoxicity rating CHEAL: 0
[5]; 7.8 g ai/ha
  phytotoxicity rating CHEAL: 0
[5]; 15.6 g ai/ha
  phytotoxicity rating CHEAL: 0
[5]; 31.3 g ai/ha
  phytotoxicity rating CHEAL: 0
[5]; 62.5 g ai/ha
  phytotoxicity rating CHEAL: 0
[5]; 125 g ai/ha
  phytotoxicity rating CHEAL: 30
[5]; 250 g ai/ha
  phytotoxicity rating CHEAL: 50
[6]; 3.9 g ai/ha
  phytotoxicity rating SORHA: 0
[6]; 7.8 g ai/ha
  phytotoxicity rating SORHA: 0
[6]; 15.6 g ai/ha
  phytotoxicity rating SORHA: 0
[6]; 31.3 g ai/ha
  phytotoxicity rating SORHA: 0
[6]; 62.5 g ai/ha
  phytotoxicity rating SORHA: 0
[6]; 125 g ai/ha
  phytotoxicity rating SORHA: 0
[6]; 250 g ai/ha
  phytotoxicity rating SORHA: 0
[7]; 3.9 g ai/ha
  phytotoxicity rating ABUTH: 0
[7]; 7.8 g ai/ha
  phytotoxicity rating ABUTH: 0
[7]; 15.6 g ai/ha
  phytotoxicity rating ABUTH: 0
[7]; 31.3 g ai/ha
  phytotoxicity rating ABUTH: 0
[7]; 62.5 g ai/ha
  phytotoxicity rating ABUTH: 0
[7]; 125 g ai/ha
  phytotoxicity rating ABUTH: 0
[7]; 250 g ai/ha
  phytotoxicity rating ABUTH: 50
[8]; 3.9 g ai/ha
  phytotoxicity rating IPOHE: 0
[8]; 7.8 g ai/ha
  phytotoxicity rating IPOHE: 0
[8]; 15.6 g ai/ha
  phytotoxicity rating IPOHE: 0
[8]; 31.3 g ai/ha
  phytotoxicity rating IPOHE: 0
[8]; 62.5 g ai/ha
  phytotoxicity rating IPOHE: 0
[8]; 125 g ai/ha
  phytotoxicity rating IPOHE: 0
[8]; 250 g ai/ha
  phytotoxicity rating IPOHE: 0
[9]; 3.9 g ai/ha
  phytotoxicity rating SETVI: 0
[9]; 7.8 g ai/ha
  phytotoxicity rating SETVI: 0
[9]; 15.6 g ai/ha
  phytotoxicity rating SETVI: 0
[9]; 31.3 g ai/ha
  phytotoxicity rating SETVI: 0
[9]; 62.5 g ai/ha
  phytotoxicity rating SETVI: 0
[9]; 125 g ai/ha
  phytotoxicity rating SETVI: 0
[9]; 250 g ai/ha
  phytotoxicity rating SETVI: 0
[10]; 3.9 g ai/ha
  phytotoxicity rating AMARE: 0
[10]; 7.8 g ai/ha
  phytotoxicity rating AMARE: 0
[10]; 15.6 g ai/ha
  phytotoxicity rating AMARE: 0
[10]; 31.3 g ai/ha
  phytotoxicity rating AMARE: 0
[10]; 62.5 g ai/ha
  phytotoxicity rating AMARE: 0
[10]; 125 g ai/ha
  phytotoxicity rating AMARE: 0
[10]; 250 g ai/ha
  phytotoxicity rating AMARE: 0
[11]; 3.9 g ai/ha
  phytotoxicity rating RICE: 0
[11]; 7.8 g ai/ha
  phytotoxicity rating RICE: 0
[11]; 15.6 g ai/ha
  phytotoxicity rating RICE: 0
[11]; 31.3 g ai/ha
  phytotoxicity rating RICE: 0
[11]; 62.5 g ai/ha
  phytotoxicity rating RICE: 0
[11]; 125 g ai/ha
  phytotoxicity rating RICE: 0
[11]; 250 g ai/ha
  phytotoxicity rating RICE: 15
[12]; 3.9 g ai/ha
  phytotoxicity rating MAIZE: 0
[12]; 7.8 g ai/ha
  phytotoxicity rating MAIZE: 0
[12]; 15.6 g ai/ha
  phytotoxicity rating MAIZE: 0
[12]; 31.3 g ai/ha
  phytotoxicity rating MAIZE: 0
[12]; 62.5 g ai/ha
  phytotoxicity rating MAIZE: 0
[12]; 125 g ai/ha
  phytotoxicity rating MAIZE: 0
[12]; 250 g ai/ha
  phytotoxicity rating MAIZE: 0
